Patent US20090028943A1, “PHARMACEUTICAL COMPOSITIONS” (priority 2005, published 2009)

Assays:
[1] = tested on: VEGF-stimulated endothelial cell proliferation (HUVEC); test: HUVEC assay, VEGF-stimulated proliferation; assay type: cell-based; conditions: Homo sapiens
[2] = tested on: basal endothelial cell proliferation (HUVEC); test: HUVEC assay, basal proliferation; assay type: cell-based; conditions: Homo sapiens
Calu-6 tumour xenograft = test: in vivo solid tumour model; conditions: once-daily oral, 28 days
[3] = stability of AZD2171 (hydrolysis, oxidation); assay type: physicochemical
From the text: In order to counteract the plasticity of a drug such as AZD2171 a person skilled in the art would typically try to modify the material's properties with the addition of a complementary excipient such as a brittle filler. However this can limit the drug loading that can be achieved in a formulation, i.e. the percentage of active ingredient therein, and can lead to very large tablets which are difficult to swallow. […] Initial test formulations of AZD2171 were therefore limited to the use of two […] fillers namely lactose and mannitol. The test formulations comprised: […]

range of models = conditions: once-daily oral administration; cited from earlier work

compatibility with brittle filler dibasic calcium phosphate dihydrate [3]: showed hydrolysis | stability ([3]; degradation by hydrolysis and oxidation): relatively poor stability
Structure (SMILES): COc1cc2c(Oc3ccc4[nH]c(C)cc4c3F)ncnc2cc1OCCCN1CCCC1 [AZD2171, 4-(4-fluoro-2-methyl-1H-indol-5-yloxy)-6-methoxy-7-(3-(pyrrolidin-1-yl)propoxy)quinazoline]
IC50 [1]: 0.4 ± 0.2 nM | IC50 [2]: > 500 nM | inhibition of growth of Calu-6 tumour xenograft (Calu-6 tumour xenograft; 1.5 mg/kg/day): 49% | inhibition of growth of Calu-6 tumour xenograft (Calu-6 tumour xenograft; 3 mg/kg/day): 69% | inhibition of growth of Calu-6 tumour xenograft (Calu-6 tumour xenograft; 6 mg/kg/day): 91% | anti-tumour activity in a range of models (range of models): broad-spectrum anti-tumour activity
